Measured values published in patent US20250049930A1, “PROTAC MOLECULES TARGETING FOXP3 AND USES THEREOF” (CEDARS-SINAI MEDICAL CENTER, priority 2022, published 2025).
Residues, ends and D or L forms follow the SMILES beside them. *: point of attachment. X1 = O=C1CCC(N2C(=O)c3cccc(*)c3C2=O)C(=O)N1; PEG4 = NCCOCCOCCOCCOCCC(=O)O

Assays:
RENCA tumors = assay: Subcutaneous RENCA tumor growth in mice; assay type: in vivo; details: s.c. RENCA in Balb/C mice, i.p. treatment from day 10, vs saline
Procedure: Mice: Balb/C mice, 5-8 weeks old, were purchased from Jackson laboratory (Ellsworth, Maine) and housed under pathogen free conditions. All experiments involving animals followed federal and state standards, which include the federal Animal Welfare Act and the NIH guide for the care and use of laboratory animals. The RENCA tumors were generated by subcutaneously injecting 2×10^5 tumor cells into the frank. The day tumor cells were injected was considered day 0. PF (0.1 mmol), PC (0.1 mmol) or P60 (100 ug) was administered i.p. twice a week starting on day 10; αPD1 (200 μg) was administered i.p. twice a week starting on day 5; temsirolimus (15 μg) was administered i.p. every other day, starting on day 10. All drugs were administered throughout the experimental course unless indicated. CD8 cells were depleted with a one-time αCD8 (200 μg) i.p. administration on day 2.
In cancer, Tregs can suppress the antitumor immune response, which is primarily mediated by CD8+ lymphocytes. Therefore, PF was administered to mice to enhance antitumor immunity and suppress growth of syngeneic mouse kidney cancer, which is considered an immunoresponsive cancer type. Mice tumors were established by injecting RENCA cells subcutaneously in the flank of Balb/C mice (5-7 mice per group). RENCA cells were injected subcutaneously to establish palpable tumors, and 10 days later mice were treated i.p., twice a week throughout the experiment, with PF, PC, P60 or Saline (FIG. 3D). Pomalidomide conjugated to (PEG)4 (PROTAC-control; PC) and P60 served as controls. […] In summary, PF decreased the immunosuppressive function of Tregs in vitro and decreased tumor growth in mice. […]
All immunotherapies, particularly when multi-drug combinations are involved, may have off-target effects. For example, drugs may have direct effects on the tumor, inhibiting tumor proliferation or inducing tumor apoptosis. Mice tumors were established by injecting RENCA cell subcutaneously in the flank of Balb/C mice (6-8 mice per group). 10 days later, mice were treated with PF twice per week. CD8 lymphocytes were depleted with αCD8 administered i.p. 2 days after injection of tumor cells. Mice in indicated groups received i.p. αPD1, twice a week, starting day 5 (FIG. 5A). Mice in indicated groups received i.p. temsirolimus every other day for 14 days, starting on days 10 (FIG. 5B). Tumor growth was monitored in these groups. […]

FoxP3 = target: T1, FoxP3 (Homo sapiens, UniProt Q9BZS1); assay: FoxP3 expression in CD4+ human PBMC, flow cytometry; assay type: cell-based; details: 10 μM, 3 days, PMA 10 ng/ml and Ionomycin 2 μg/ml, difference to P60 not significant
T1 construct: endogenous in cells; host or cells: human PBMC (CD4+ gated)
T1 sequence (Q9BZS1 1-431): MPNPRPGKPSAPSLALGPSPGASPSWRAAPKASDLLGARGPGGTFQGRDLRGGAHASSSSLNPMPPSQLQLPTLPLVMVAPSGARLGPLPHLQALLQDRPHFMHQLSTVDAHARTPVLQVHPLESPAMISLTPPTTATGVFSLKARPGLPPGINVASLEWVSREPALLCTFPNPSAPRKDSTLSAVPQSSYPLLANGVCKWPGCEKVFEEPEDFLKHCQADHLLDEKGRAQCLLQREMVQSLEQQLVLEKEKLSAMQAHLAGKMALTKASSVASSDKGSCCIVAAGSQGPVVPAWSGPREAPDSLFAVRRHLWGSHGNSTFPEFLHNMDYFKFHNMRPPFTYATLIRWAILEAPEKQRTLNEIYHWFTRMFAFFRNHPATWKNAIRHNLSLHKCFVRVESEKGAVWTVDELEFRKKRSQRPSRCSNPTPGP
Procedure: FIGS. 7A-7C depict that PF decreases FoxP3 and the immunosuppressive function of human CD4+ cells. Human peripheral blood mononuclear cells (PBMC) were treated in vitro with PF (10 μM) or various control drugs (10 μM) for 3 days (FIG. 7A). PMA 10 ng/ml and Ionomycin 2 μg/ml were added during PF treatment to induce FoxP3 (FIG. 7A). Resulting cells were gated on CD4 and assessed for FoxP3 expression by flow cytometry. To treat Tregs, CD4+ PBMC were isolated and treated with PF or various controls for 72 hours. […] CD8 proliferation was measured using a CFSE dilution assay. To assess CD8+ effector cells, CD4 negative splenocytes were CFSE labeled and CFSE dilution was measured in CD8+ cells by flow cytometry (FIG. 7B). In the same experiment, CD8+ cells were assessed for activation by gating on CD8 and assessing IFNγ or TNFα by flow cytometry (FIG. 7C). […]
Human peripheral blood mononuclear cells (PBMC) were treated with phorbol 12-myristate 13-acetate (PMA) (10 ng/ml) and Ionomycin (2 μg/ml) to increase FoxP3 expression. […] CD8 proliferation was measured using a CFSE dilution assay. Immune activation was assessed by measuring TNFα or IFNγ in CD8+ or CD4+ T cells using flow cytometry.
P60 was designed to bind both mouse and human FoxP3. Therefore, we evaluated PF using human peripheral blood mononuclear cells (PBMC). […] Resulting cells were gated on CD4 and assessed for FoxP3 expression by flow cytometry. […]

CSCC[C@H](NC(=O)[C@H](C)NC(=O)[C@H](Cc1ccccc1)NC(=O)[C@H](Cc1ccccc1)NC(=O)[C@@H]1CCCN1C(=O)[C@H](Cc1c[nH]c2ccccc12)NC(=O)[C@H](CCSC)NC(=O)[C@H](CCCCN)NC(=O)[C@H](CCCNC(=N)N)NC(=O)[C@H](Cc1ccccc1)NC(=O)[C@H](CO)NC(=O)[C@H](CCC(N)=O)NC(=O)[C@H](Cc1ccccc1)NC(=O)[C@H](CC(=O)O)NC(=O)[C@H](CCCNC(=N)N)NC(=O)CCOCCOCCOCCOCCNc1cccc2c1C(=O)N(C1CCC(=O)NC1=O)C2=O)C(=O)O (stereo partly drawn) [PF, Pomalidomide-PEG4-RDFQSFRKMWPFFAM] ({X1-PEG4}-RDFQSFRKMWPFFAM-OH)
tumor growth, single agent (RENCA tumors): produced a decrease in tumor growth
tumor growth, single agent (RENCA tumors; listed as P-FoxP3): appeared to decrease tumor growth compared to saline control
percent of CD4+ cells expressing FoxP3 (FoxP3): decreased the percent of CD4+ cells expressing FoxP3 when compared to control
